Measurements from ChEMBL document CHEMBL5465560, “Selectivity Literature for EUbOPEN Chemogenomic Library” (2024).

How the values were obtained:
[1] = target: Protein kinase C eta type (Homo sapiens) (UniProt P24723); test: Selectivity interaction (KinomeScan (DiscoverX)) EUB0000666a PRKCH; conditions: at 10 µM
[2] = target: Serine/threonine-protein kinase 35 (Homo sapiens) (UniProt Q8TDR2); test: Selectivity interaction (KinomeScan (DiscoverX)) EUB0000666a STK35; conditions: at 10 µM
[3] = target: High affinity nerve growth factor receptor (Homo sapiens, UniProt P04629); test: Selectivity interaction (KinaseProfiler screening (Millipore)) EUB0000601a NTRK1; conditions: at 3 µM
[4] = target: Neuromedin-K receptor (Homo sapiens) (UniProt P29371); test: Selectivity interaction (Eurofins CEREP Diversity Profile (receptors and ion channels)) EUB0000279b TACR3; conditions: at 10 µM
[5] = target: STE20/SPS1-related proline-alanine-rich protein kinase (Homo sapiens) (UniProt Q9UEW8); test: Selectivity interaction (Kinase panel (DSF assay)) EUB0001558a STK39
[6] = target: T1, Interleukin-1 receptor-associated kinase 4 (Homo sapiens, UniProt Q9NWZ3); test: Selectivity interaction (Enzymatic assay) EUB0001550a IRAK4
T1 sequence (Q9NWZ3 whole entry): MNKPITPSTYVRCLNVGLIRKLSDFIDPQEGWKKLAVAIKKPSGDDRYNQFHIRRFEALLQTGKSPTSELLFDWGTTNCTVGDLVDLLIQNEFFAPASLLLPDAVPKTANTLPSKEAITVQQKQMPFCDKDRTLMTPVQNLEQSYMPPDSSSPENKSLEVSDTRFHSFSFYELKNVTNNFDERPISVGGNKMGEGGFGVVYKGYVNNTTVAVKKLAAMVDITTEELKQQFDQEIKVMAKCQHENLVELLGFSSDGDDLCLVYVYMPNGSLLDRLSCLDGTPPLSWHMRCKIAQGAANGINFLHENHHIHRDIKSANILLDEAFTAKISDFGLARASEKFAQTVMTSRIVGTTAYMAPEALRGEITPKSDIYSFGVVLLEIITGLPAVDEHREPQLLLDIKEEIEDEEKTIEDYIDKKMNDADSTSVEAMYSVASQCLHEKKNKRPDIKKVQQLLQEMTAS

[7] = target: Mitogen-activated protein kinase 9 (Homo sapiens, UniProt P45984); test: Selectivity interaction (Kinase panel (enzymatic assay)) EUB0000595a MAPK9
[8] = target: G protein-coupled receptor kinase 4 (Homo sapiens) (UniProt P32298); test: Selectivity interaction (KinomeScan (DiscoverX)) EUB0000595a GRK4; conditions: at 10 µM
[9] = target: Wee1-like protein kinase 2 (Homo sapiens) (UniProt P0C1S8); test: Selectivity interaction (KinomeScan (DiscoverX)) EUB0000595a WEE2; conditions: at 10 µM
[10] = target: Cyclin-dependent kinase 5 (Homo sapiens, UniProt Q00535); test: Selectivity interaction (Kinase screening (Nanosyn)) EUB0000604a CDK5
[11] = target: Death-associated protein kinase 1 (Homo sapiens, UniProt P53355); test: Selectivity interaction (KinomeScan (DiscoverX)) EUB0000618a DAPK1; conditions: at 10 µM
[12] = target: LIM domain kinase 2 (Homo sapiens) (UniProt P53671); conditions: at 10 µM
[13] = target: T2, Serine/threonine-protein kinase 3 (Homo sapiens) (UniProt Q13188); test: Selectivity interaction (ActivX KiNativ screen (ex vivo kinase selectivity in human PBMCs)) EUB0001619a STK3; assay type: cell-based; conditions: PBMC, at 1 µM
T2 sequence (whole entry): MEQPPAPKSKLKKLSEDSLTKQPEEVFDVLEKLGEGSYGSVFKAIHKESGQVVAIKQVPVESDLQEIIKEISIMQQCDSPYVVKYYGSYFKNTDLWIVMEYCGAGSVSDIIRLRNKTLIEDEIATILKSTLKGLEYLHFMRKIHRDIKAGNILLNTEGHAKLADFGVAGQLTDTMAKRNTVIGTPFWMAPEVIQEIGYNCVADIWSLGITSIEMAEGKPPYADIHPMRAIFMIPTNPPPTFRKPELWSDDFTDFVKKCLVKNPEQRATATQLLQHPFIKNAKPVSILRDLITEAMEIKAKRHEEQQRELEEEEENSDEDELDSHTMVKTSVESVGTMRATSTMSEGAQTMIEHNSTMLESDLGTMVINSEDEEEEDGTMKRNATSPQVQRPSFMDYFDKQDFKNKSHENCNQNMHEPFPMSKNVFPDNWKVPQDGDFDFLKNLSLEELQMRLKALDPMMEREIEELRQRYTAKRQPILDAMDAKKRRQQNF

[14] = tested on: Leucine-rich repeat serine/threonine-protein kinase 2 (Homo sapiens), Q5S007 [G2019S]; test: (§1) Selectivity interaction (KinomeScan (DiscoverX)) EUB0000607a LRRK2; conditions: at 10 µM
[15] = target: Leucine-rich repeat serine/threonine-protein kinase 2 (Homo sapiens, UniProt Q5S007); test: as §1; conditions: at 10 µM
Activated CDC42 kinase 1 = Activated CDC42 kinase 1 (Homo sapiens, UniProt Q07912); test: Selectivity interaction (LanthaScreen Eu Kinase Binding Assay) EUB0001632a TNK2; conditions: at 10 µM
[16] = tested on: Proto-oncogene tyrosine-protein kinase receptor Ret (Homo sapiens), P07949 [Y791F]; test: (§2) Selectivity interaction (ProQinase) EUB0000171b RET
[17] = tested on: Proto-oncogene tyrosine-protein kinase receptor Ret (Homo sapiens), P07949 [G691S]; test: as §2
[18] = tested on: Proto-oncogene tyrosine-protein kinase receptor Ret (Homo sapiens), P07949 [V804L]; test: as §2
[19] = tested on: Proto-oncogene tyrosine-protein kinase receptor Ret (Homo sapiens), P07949 [S891A]; test: as §2
[20] = tested on: Proto-oncogene tyrosine-protein kinase receptor Ret (Homo sapiens), P07949 [V804M]; test: as §2
[21] = tested on: Proto-oncogene tyrosine-protein kinase receptor Ret (Homo sapiens), P07949 [E762Q]; test: as §2
[22] = target: Proto-oncogene tyrosine-protein kinase receptor Ret (Homo sapiens, UniProt P07949); test: as §2
[23] = tested on: Proto-oncogene tyrosine-protein kinase receptor Ret (Homo sapiens), P07949 [R749T]; test: as §2
[24] = tested on: Proto-oncogene tyrosine-protein kinase receptor Ret (Homo sapiens), P07949 [M918T]; test: as §2
[25] = tested on: Proto-oncogene tyrosine-protein kinase receptor Ret (Homo sapiens), P07949 [R813Q]; test: as §2
Chain of Proto-oncogene tyrosine-protein kinase receptor Ret (Homo sapiens), P07949 [R813Q] (P07949 whole entry R813Q): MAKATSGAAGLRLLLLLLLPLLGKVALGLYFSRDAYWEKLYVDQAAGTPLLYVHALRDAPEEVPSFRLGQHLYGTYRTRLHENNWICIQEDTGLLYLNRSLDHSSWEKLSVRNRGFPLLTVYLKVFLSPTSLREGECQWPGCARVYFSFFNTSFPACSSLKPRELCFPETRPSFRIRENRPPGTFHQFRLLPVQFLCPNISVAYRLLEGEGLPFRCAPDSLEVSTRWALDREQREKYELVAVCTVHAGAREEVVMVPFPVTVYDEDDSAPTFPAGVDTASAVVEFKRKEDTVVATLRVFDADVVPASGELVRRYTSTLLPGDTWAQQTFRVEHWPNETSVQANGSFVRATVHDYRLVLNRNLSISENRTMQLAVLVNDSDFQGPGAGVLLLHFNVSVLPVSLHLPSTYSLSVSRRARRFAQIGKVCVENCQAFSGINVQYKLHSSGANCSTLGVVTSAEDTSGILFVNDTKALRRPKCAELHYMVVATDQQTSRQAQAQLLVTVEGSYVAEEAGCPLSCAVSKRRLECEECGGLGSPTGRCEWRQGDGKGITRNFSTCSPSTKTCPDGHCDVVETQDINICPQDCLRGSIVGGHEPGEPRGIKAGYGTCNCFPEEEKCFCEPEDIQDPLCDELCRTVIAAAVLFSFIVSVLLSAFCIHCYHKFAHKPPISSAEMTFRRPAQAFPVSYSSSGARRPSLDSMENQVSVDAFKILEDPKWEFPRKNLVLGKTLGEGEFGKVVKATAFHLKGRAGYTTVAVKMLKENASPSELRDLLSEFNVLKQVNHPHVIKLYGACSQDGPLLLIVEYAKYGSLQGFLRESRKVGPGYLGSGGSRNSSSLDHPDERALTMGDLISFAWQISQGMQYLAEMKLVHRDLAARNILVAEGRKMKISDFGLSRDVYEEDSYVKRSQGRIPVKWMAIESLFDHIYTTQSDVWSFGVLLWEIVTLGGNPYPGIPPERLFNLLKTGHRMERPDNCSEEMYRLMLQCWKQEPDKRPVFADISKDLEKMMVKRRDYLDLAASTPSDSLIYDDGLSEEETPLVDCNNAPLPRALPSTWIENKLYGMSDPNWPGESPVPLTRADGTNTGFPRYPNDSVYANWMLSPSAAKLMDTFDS

Chain of Proto-oncogene tyrosine-protein kinase receptor Ret (Homo sapiens), P07949 [E762Q] (P07949 61-1114 E762Q): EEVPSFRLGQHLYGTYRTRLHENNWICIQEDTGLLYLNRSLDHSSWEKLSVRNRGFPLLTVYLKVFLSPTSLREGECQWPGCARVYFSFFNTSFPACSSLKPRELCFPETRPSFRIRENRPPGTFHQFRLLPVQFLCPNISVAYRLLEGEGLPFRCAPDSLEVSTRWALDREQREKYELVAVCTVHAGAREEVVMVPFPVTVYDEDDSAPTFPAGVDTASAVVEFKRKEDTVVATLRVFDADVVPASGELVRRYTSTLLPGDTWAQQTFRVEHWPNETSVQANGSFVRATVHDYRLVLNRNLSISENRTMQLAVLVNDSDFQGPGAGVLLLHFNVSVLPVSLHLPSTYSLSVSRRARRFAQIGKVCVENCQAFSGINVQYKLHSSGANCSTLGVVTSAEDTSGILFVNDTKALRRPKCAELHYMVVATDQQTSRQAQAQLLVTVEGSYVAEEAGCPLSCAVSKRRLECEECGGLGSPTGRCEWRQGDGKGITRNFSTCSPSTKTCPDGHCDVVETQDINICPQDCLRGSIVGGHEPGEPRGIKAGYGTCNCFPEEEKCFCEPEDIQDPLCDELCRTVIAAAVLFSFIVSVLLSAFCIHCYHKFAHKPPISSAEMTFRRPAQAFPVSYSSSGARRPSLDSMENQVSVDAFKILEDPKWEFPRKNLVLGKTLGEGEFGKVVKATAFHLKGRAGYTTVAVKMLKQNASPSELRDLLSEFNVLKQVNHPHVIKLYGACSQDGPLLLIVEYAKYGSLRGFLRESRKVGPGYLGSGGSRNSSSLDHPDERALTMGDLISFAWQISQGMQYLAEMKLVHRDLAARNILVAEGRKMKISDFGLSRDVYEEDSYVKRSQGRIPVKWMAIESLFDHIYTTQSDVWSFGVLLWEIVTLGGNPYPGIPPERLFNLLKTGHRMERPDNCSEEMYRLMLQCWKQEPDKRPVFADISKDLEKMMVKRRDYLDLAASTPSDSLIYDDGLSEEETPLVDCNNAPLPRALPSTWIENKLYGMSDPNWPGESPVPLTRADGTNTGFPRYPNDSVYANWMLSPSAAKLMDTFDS
Chain of Proto-oncogene tyrosine-protein kinase receptor Ret (Homo sapiens), P07949 [Y791F] (P07949 whole entry Y791F): as the sequence (P07949 whole entry R813Q) above, with Y791F, Q813R counted along it
Chain of Proto-oncogene tyrosine-protein kinase receptor Ret (Homo sapiens), P07949 [R749T] (P07949 whole entry R749T): as the sequence (P07949 whole entry R813Q) above, with R749T, Q813R counted along it
Chain of LIM domain kinase 2 (Homo sapiens) (P53671 whole entry, looked up, the tested form may be a part): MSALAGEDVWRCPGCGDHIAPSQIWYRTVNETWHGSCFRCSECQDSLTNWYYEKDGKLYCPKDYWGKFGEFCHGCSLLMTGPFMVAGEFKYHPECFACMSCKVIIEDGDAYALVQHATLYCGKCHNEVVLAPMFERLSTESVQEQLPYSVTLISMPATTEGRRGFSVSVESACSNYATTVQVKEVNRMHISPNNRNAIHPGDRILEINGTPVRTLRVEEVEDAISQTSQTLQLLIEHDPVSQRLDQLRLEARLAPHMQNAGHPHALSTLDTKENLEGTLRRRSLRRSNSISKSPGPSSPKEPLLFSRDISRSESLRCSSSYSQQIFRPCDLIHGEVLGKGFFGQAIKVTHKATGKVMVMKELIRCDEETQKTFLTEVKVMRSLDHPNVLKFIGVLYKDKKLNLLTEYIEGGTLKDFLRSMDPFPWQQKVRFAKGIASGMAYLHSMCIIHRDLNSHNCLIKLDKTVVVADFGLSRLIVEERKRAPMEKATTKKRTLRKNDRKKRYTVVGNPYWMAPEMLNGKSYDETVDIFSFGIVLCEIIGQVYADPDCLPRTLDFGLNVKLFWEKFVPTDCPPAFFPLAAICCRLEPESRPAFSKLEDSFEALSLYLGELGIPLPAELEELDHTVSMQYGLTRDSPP

## O=C(NOC[C@H](O)CO)c1ccc(F)c(F)c1Nc1ccc(I)cc1F
[1]
  % of control: 100%
[2]
  % of control: 83%

## CCc1cc(Nc2nccc(-c3c(-c4ccc(OC)c(C(=O)Nc5c(F)cccc5F)c4)nc4ccccn34)n2)c(OC)cc1N1CCC(N2CCN(S(C)(=O)=O)CC2)CC1
[3]
  % of inhibition: 59%

## CC(=O)c1cc(-c2ccccc2OCC2CC2)c2ncccn12
[4]
  % of control: 85%

## CC(C)(O)[C@H](F)CN1Cc2cc(NC(=O)c3cnn4cccnc34)c(N3CCOCC3)cc2C1=O
[5]
  dTM: 0.2 K

## CN(C)CC#Cc1ccc2[nH]c3c(c2c1)-c1nc(N)ncc1CCC3
[6]
  IC50: 4.5 µM

## COCC(=O)NC/C=C/c1ccc2ncnc(Nc3ccc(Oc4ccc(C)nc4)c(C)c3)c2c1 [CP-724714]
[7]
  IC50: > 10 µM
[8]
  % of control: 100%
[9]
  % of control: 81%

## Cc1cnc(Nc2ccc(F)cc2Cl)nc1-c1c[nH]c(C(=O)N[C@H](CO)c2cccc(Cl)c2)c1
[10]
  % of inhibition: 24%

## O[C@H]1CC[C@H](Nc2ncc3nc(Nc4c(F)cc(F)cc4F)n([C@H]4CCOC4)c3n2)CC1
[11]
  % of control: 95%

## Cc1cc([C@@H](C)Nc2ccccc2C(=O)O)c2nc(N3CCOCC3)cc(=O)n2c1 [AZD-6482]
[12]
  % of control: 100%

## N#Cc1cccc(-c2c[nH]c3ncnc(N4CCOCC4)c23)c1
[13]
  % of inhibition: 83%

## CNC(=O)Nc1ccc(-c2nc(N3CC4CCC(C3)O4)c3cnn(C4CCC5(CC4)OCCO5)c3n2)cc1
[14]
  % of control: 65%
[15]
  % of control: 82%

## Cn1cc(-n2cnc3c(NCc4nc5cc(Cl)c(Cl)cc5[nH]4)nc(N4CCOCC4)nc32)cn1
Activated CDC42 kinase 1
  % of inhibition: -5.62%

## C=CC(=O)Nc1cccc(C(=O)Nc2ccc(Nc3cc(-c4[nH]c(SC)nc4C)ccn3)cc2)c1
[16]; at 1 µM
  % of control: 96%
[16]; at 5 µM
  % of control: 71%
[17]; at 1 µM
  % of control: 90%
[17]; at 5 µM
  % of control: 77%
[18]; at 1 µM
  % of control: 88%
[18]; at 5 µM
  % of control: 80%
[19]; at 1 µM
  % of control: 95%
[19]; at 5 µM
  % of control: 74%
[20]; at 1 µM
  % of control: 98%
[20]; at 5 µM
  % of control: 90%
[21]; at 1 µM
  % of control: 95%
[21]; at 5 µM
  % of control: 78%
[22]; at 1 µM
  % of control: 87%
[22]; at 5 µM
  % of control: 72%
[23]; at 1 µM
  % of control: 96%
[23]; at 5 µM
  % of control: 76%
[24]; at 1 µM
  % of control: 97%
[24]; at 5 µM
  % of control: 82%
[25]; at 1 µM
  % of control: 98%
[25]; at 5 µM
  % of control: 75%
